This note sets out measurements from ChEMBL document CHEMBL1201862, “PubChem BioAssay data set” (2004).

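1) Cells in 96-well plates. 2) Compound, 48 h, 5 concentrations. 3) Linear interpolation between surrounding doses. 4) Unreached endpoint = highest concentration. GI50 marks 50% less growth.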 The source made the active and inactive calls. No stated cut-off is given here; in the data, active = GI50 up to about 1.1 µM and inactive = higher.

Among the test systems are HCT-116; SNB-19; CAKI-1; MDA-MB-435; LOX IMVI; M14; OVCAR-4; HT-29; OVCAR-5; SNB-75; NCI-H460; MDA-MB-231; SF-268; SK-MEL-5; SW-620; SF-295; NCI-H226; UO-31; ACHN; HCC 2998.
Holding throughout (test): growth of human tumour cells (NCI), 48 h

On to `Cn1c(=O)c2nc(CCCCc3nc4c(=O)n(C)c(=S)n(C)c4[nH]3)[nH]c2n(C)c1=S`, for which the GI50 in the assay on HCT-116 is > 100 µM (inactive); in the assay with SNB-19 it was 76.6 µM (inactive); in the assay with CAKI-1 it was > 100 µM (inactive); with MDA-MB-435 it was > 100 µM (inactive); in the assay with LOX IMVI it was > 100 µM (inactive); with M14, > 100 µM (inactive). Besides, the GI50 in the assay on OVCAR-4 was > 100 µM (inactive); in the assay with HT-29, > 100 µM (inactive); with OVCAR-5 it was > 100 µM (inactive); with SNB-75 it was 23.4 µM (inactive); in the assay with NCI-H460 it was > 100 µM (inactive); in the assay on MDA-MB-231, > 100 µM (inactive). The GI50 in the assay with SF-268 is > 100 µM (inactive); in the assay with SK-MEL-5, > 100 µM (inactive); with SW-620, > 100 µM (inactive); in the assay on SF-295, 88.1 µM (inactive); with NCI-H226, > 100 µM (inactive); in the assay with UO-31, > 100 µM (inactive). For the same compound, in the assay with ACHN, the GI50 is > 100 µM (inactive).
As to `Cc1sc2nc(-c3cc([N+](=O)[O-])c(Cl)cc3Cl)c(/C=N/NC(=N)N)n2c1C`, the GI50 with HCT-116 was 4.15 µM (inactive); in the assay on CAKI-1, 11.9 µM (inactive); in the assay with MDA-MB-435, 3.72 µM (inactive); in the assay on HCC 2998 it was 2.34 µM (inactive); in the assay with LOX IMVI, 2.29 µM (inactive); in the assay with M14, 2.76 µM (inactive). In addition, the GI50 was 2.36 µM (inactive) in the assay on OVCAR-4; 3.25 µM (inactive) with HT-29; 32.2 µM (inactive) in the assay with OVCAR-5; 6.34 µM (inactive) in the assay on NCI-H460; 6.61 µM (inactive) with MDA-MB-231; 10.5 µM (inactive) in the assay on SF-268. Moreover, the GI50 in the assay with SK-MEL-5 was 6.3 µM (inactive); with SW-620, 13.6 µM (inactive); in the assay on SF-295 it was 13 µM (inactive); with NCI-H226 it was 26.8 µM (inactive); in the assay on UO-31 it was 11.4 µM (inactive); with ACHN, 5.22 µM (inactive).
Consider `N=C(N)C(/N=N\c1ccccc1)C(=N)N` (configuration not stated), for which the GI50 was 33.5 µM (inactive) with HCT-116; 53.7 µM (inactive) with SNB-19; 38.4 µM (inactive) with CAKI-1; 16.9 µM (inactive) with MDA-MB-435; 16.5 µM (inactive) in the assay with HCC 2998; 34 µM (inactive) in the assay with LOX IMVI. Besides, the GI50 was 40.7 µM (inactive) in the assay with M14; 42.4 µM (inactive) with OVCAR-4; 29.8 µM (inactive) in the assay on HT-29; 49.7 µM (inactive) in the assay on OVCAR-5; 32.1 µM (inactive) with NCI-H460; 15.3 µM (inactive) in the assay with MDA-MB-231. The GI50 with SF-268 was 59.6 µM (inactive); with SK-MEL-5 it was 28 µM (inactive); with SW-620, 34.4 µM (inactive); in the assay with SF-295, 32.9 µM (inactive); with NCI-H226 it was 15 µM (inactive); with UO-31, 30.5 µM (inactive). Besides, the GI50 in the assay on ACHN was 64.9 µM (inactive).
With `COc1cc2c(cc1OC)C(=O)N(c1ccc(OCCN3CCCC3)cc1)C2`, the GI50 in the assay with HCT-116, in the assay with SNB-19, in the assay with CAKI-1, in the assay on MDA-MB-435, with HCC 2998 and in the assay with LOX IMVI was > 100 µM (inactive) each time. Besides, the GI50 in the assay on M14, in the assay with OVCAR-4, in the assay on HT-29, in the assay with OVCAR-5, in the assay on NCI-H460 and in the assay on MDA-MB-231 was > 100 µM (inactive) in each case. In addition, the GI50 in the assay on SF-268, in the assay with SK-MEL-5, in the assay with SW-620, with SF-295, in the assay with NCI-H226 and in the assay on ACHN was > 100 µM (inactive) each time.
For the compound `COc1ccc2c(c1)O[C@@H]1C(O)Oc3cc(OC)c(OC)cc3[C@]1(O)C2=O` (some centres not stated), the GI50 was 86.3 µM (inactive) in the assay with HCT-116; > 100 µM (inactive) in the assay on SNB-19; > 100 µM (inactive) in the assay with CAKI-1; 50.8 µM (inactive) in the assay on MDA-MB-435; 29.9 µM (inactive) in the assay on LOX IMVI; > 100 µM (inactive) in the assay with M14. Further, the GI50 in the assay with OVCAR-4 was 35.1 µM (inactive); in the assay on HT-29, 89.9 µM (inactive); in the assay on OVCAR-5, > 100 µM (inactive); in the assay with SNB-75, > 100 µM (inactive); in the assay with NCI-H460 it was 69 µM (inactive); with MDA-MB-231, 72.3 µM (inactive). In addition, the GI50 in the assay with SF-268 was 34.3 µM (inactive); with SK-MEL-5, 10.5 µM (inactive); with SW-620, 88.7 µM (inactive); in the assay on SF-295 it was 24 µM (inactive); in the assay with NCI-H226 it was 10.4 µM (inactive); in the assay with ACHN, > 100 µM (inactive).
`COc1ccc(C(=O)N/N=C2\C(=O)c3c(C)cc(C)cc3CC2(C)C)cc1`: the GI50 is 17.1 µM (inactive) with HCT-116; 27.4 µM (inactive) in the assay on SNB-19; 36 µM (inactive) in the assay on CAKI-1; 17.9 µM (inactive) in the assay on MDA-MB-435; 17.7 µM (inactive) in the assay on LOX IMVI; 19.8 µM (inactive) in the assay on M14. For the same compound, the GI50 with OVCAR-4 was 27 µM (inactive); in the assay on HT-29, 18.4 µM (inactive); in the assay with OVCAR-5 it was 21 µM (inactive); in the assay with SNB-75, 21.4 µM (inactive); in the assay with NCI-H460, 25.6 µM (inactive); with MDA-MB-231, 19.7 µM (inactive). Besides, the GI50 with SF-268 was 17.3 µM (inactive); with SK-MEL-5, 16.7 µM (inactive); in the assay on SW-620, 20.8 µM (inactive); with SF-295, 19.6 µM (inactive); in the assay with NCI-H226, 22.3 µM (inactive); in the assay with ACHN, 24.1 µM (inactive).
For `COc1cc2c(/C=C3/C(=O)Nc4ccc(O)cc43)c(Cl)n(Cc3ccccc3)c2cc1C`, the GI50 was 0.421 µM (active) with HCT-116; 0.596 µM (active) in the assay on SNB-19; 0.408 µM (active) in the assay with CAKI-1; 0.078 µM (active) with MDA-MB-435; 0.558 µM (active) in the assay on LOX IMVI; 0.6 µM (active) in the assay with M14. In addition, the GI50 in the assay on OVCAR-4 is 4.2 µM (inactive); in the assay on HT-29, 0.75 µM (active); in the assay with OVCAR-5, 2.1 µM (inactive); in the assay on SNB-75, 0.979 µM (active); in the assay on NCI-H460 it was 0.553 µM (active); with MDA-MB-231, 6 µM (inactive). Further, the GI50 was 0.678 µM (active) with SF-268; 0.266 µM (active) with SK-MEL-5; 0.433 µM (active) in the assay with SW-620; 0.323 µM (active) in the assay with SF-295; 0.948 µM (active) with NCI-H226; 3.76 µM (inactive) with UO-31. Besides, in the assay with ACHN, the GI50 is 0.628 µM (active).
Consider `C[C@@]12CCC3C1C=C1C(=O)c4cc(O)ccc4C(=O)[C@]1(O2)[C@@]3(C)C=O`, for which the GI50 in the assay with HCT-116 was 3.52 µM (inactive); in the assay on SNB-19, 8.95 µM (inactive); with CAKI-1 it was 4.09 µM (inactive); with MDA-MB-435, 3.15 µM (inactive); in the assay with HCC 2998 it was 2.97 µM (inactive); with LOX IMVI, 2.57 µM (inactive). In addition, the GI50 in the assay on M14 is 8.34 µM (inactive); in the assay with OVCAR-4, 6.22 µM (inactive); in the assay on HT-29, 4.67 µM (inactive); in the assay on OVCAR-5 it was 13.7 µM (inactive); with NCI-H460, 2.85 µM (inactive); with MDA-MB-231, 8.71 µM (inactive). In addition, the GI50 with SF-268 was 9.91 µM (inactive); in the assay with SK-MEL-5, 7.29 µM (inactive); with SW-620, 3.9 µM (inactive); in the assay with SF-295, 11.5 µM (inactive); with NCI-H226, 12.6 µM (inactive); in the assay with UO-31, 4.9 µM (inactive). Moreover, in the assay on ACHN, the GI50 is 7.11 µM (inactive).
As for `COc1cccc2c1C(=O)c1c(O)c3c(c(O)c1C2=O)C[C@H](O)C[C@@H]3OC1CC(N)C(O)C(C)O1` (some centres not stated), the GI50 in the assay on HCT-116 was 0.245 µM (active); in the assay on SNB-19, 3.36 µM (inactive); in the assay with CAKI-1, 1.08 µM (active); with MDA-MB-435, 1.82 µM (inactive); with LOX IMVI, 0.229 µM (active); with OVCAR-4, 4.36 µM (inactive). Besides, the GI50 is 2.09 µM (inactive) with HT-29; 1.97 µM (inactive) in the assay with OVCAR-5; 1.87 µM (inactive) in the assay with SNB-75; < 0.01 µM (active) in the assay with NCI-H460; 1.78 µM (inactive) with MDA-MB-231; 1.57 µM (inactive) in the assay on SF-268. The GI50 with SK-MEL-5 is 0.522 µM (active); in the assay on SF-295, 1.44 µM (inactive); in the assay on NCI-H226, 1.08 µM (active); in the assay on UO-31 it was 2.24 µM (inactive); in the assay with ACHN, 1.17 µM (inactive).
Consider `O=C1NC(=O)[C@@H](OCC2CCCCC2)[C@@H]2OCC3OC(C(O)C3O)C12` (some centres not stated), for which the GI50 in the assay on HCT-116, in the assay with SNB-19, in the assay on CAKI-1, with MDA-MB-435, in the assay on HCC 2998 and in the assay with LOX IMVI was > 100 µM (inactive) in each case. Also, the GI50 in the assay on M14, in the assay with OVCAR-4, with HT-29, in the assay with OVCAR-5, in the assay with NCI-H460 and in the assay on MDA-MB-231 was > 100 µM (inactive) each time. Moreover, the GI50 in the assay on SF-268, in the assay with SK-MEL-5, in the assay on SW-620, in the assay on SF-295, with NCI-H226 and in the assay on ACHN was > 100 µM (inactive) throughout.
Regarding `COc1ccc(S(=O)(=O)Nc2ccc(-c3csc(N4C(=O)/C(=C/C=C\c5ccccc5)N=C4c4ccccc4)n3)cc2)cc1Cl`, the GI50 in the assay on HCT-116 is 25.7 µM (inactive); in the assay with SNB-19 it was 33.7 µM (inactive); with CAKI-1 it was 36.1 µM (inactive); in the assay with MDA-MB-435, 22.8 µM (inactive); in the assay on LOX IMVI, 19.8 µM (inactive); in the assay with M14 it was 27.6 µM (inactive). Besides, the GI50 in the assay with OVCAR-4 was 25.9 µM (inactive); in the assay with HT-29, 56.8 µM (inactive); in the assay with OVCAR-5, 38.6 µM (inactive); with SNB-75, 33.4 µM (inactive); in the assay on NCI-H460, 32.1 µM (inactive); with MDA-MB-231, 22.9 µM (inactive). Also, the GI50 was 19.1 µM (inactive) in the assay with SF-268; 27.4 µM (inactive) with SK-MEL-5; 43 µM (inactive) in the assay with SW-620; 38.5 µM (inactive) with SF-295; 34 µM (inactive) in the assay on NCI-H226; 28.3 µM (inactive) in the assay with UO-31. In addition, the GI50 in the assay with ACHN is 31.1 µM (inactive).
